Measurements taken from patent US10588317B2, “Isoxazoline-substituted benzamides and analogues as insecticides” (priority 2015, dated 2020).

Experiments:
Type in all cases: in vivo
[1] = test system: Spodoptera littoralis; assay: Spodoptera littoralis (Egyptian cotton leaf worm), uptake by lettuce roots from agar; conditions: 144 h, read-out: effect in at least one of the three categories (mortality, anti-feeding, or growth inhibition);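 also: 12.5 ppm test rate in agar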
Summary of the method: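 Compound from 10'000 ppm DMSO stocks was mixed into agar, and lettuce grew on it for 7 days to take it up via roots. Cut leaves were infested with Spodoptera eggs; mortality, anti-feedant effect and growth inhibition scored 6 days later versus untreated samples.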

[2] = test system: Plutella xylostella; assay: Plutella xylostella (diamond back moth), artificial diet; conditions: 120 h, application rate 200 ppm, L2 larvae, 5 days after infestation, read-out: effect in at least one of the two categories (mortality or growth inhibition)
Summary of the method: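 Artificial diet in 24-well plates treated with aqueous test solutions made from 10'000 ppm DMSO stocks, dried, then infested with L2 larvae (10 to 15 per well). Mortality and growth inhibition scored against untreated samples 5 days after infestation; activity cut-off at least 80% in either category at 200 ppm.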

[3] = test system: Euschistus heros; assay: Euschistus heros (neotropical brown stink bug), sprayed soybean leaves; conditions: 120 h, application rate 200 ppm, N2 nymphs, 5 days after infestation, read-out: effect in at least one of the two categories (mortality or growth inhibition)
Summary of the method: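 Soybean leaves on agar sprayed with aqueous dilutions of DMSO stocks, dried, then infested with N2 nymphs. Mortality and growth inhibition scored against untreated samples 5 days after infestation; application rate 200 ppm.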

[4] = test system: Diabrotica balteata; assay: Diabrotica balteata (corn root worm), sprayed maize sprouts; conditions: 96 h, application rate 200 ppm, L2 larvae, 4 days after infestation, read-out: effect in at least one of the two categories (mortality or growth inhibition)
Summary of the method: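 Maize sprouts on agar sprayed with aqueous dilutions of DMSO stocks, dried, then infested with L2 larvae (6–10 per well). Mortality and growth inhibition scored against untreated controls 4 days after infestation, at 200 ppm application rate.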

[5] = test system: Tetranychus urticae; assay: Tetranychus urticae (two-spotted spider mite): feeding/contact activity; conditions: 192 h, application rate 200 ppm, mixed population (mobile stages), 8 days after infestation, read-out: mortality
Experimental: Bean leaf discs on agar in 24-well microtiter plates were sprayed with aqueous test solutions prepared from 10'000 ppm DMSO stock solutions. After drying the leaf discs were infested with a mite population of mixed ages. The samples were assessed for mortality on mixed population (mobile stages) 8 days after infestation.

[6] = test system: Spodoptera littoralis; assay: Spodoptera littoralis (Egyptian cotton leaf worm), sprayed cotton leaf discs; conditions: foliar, 72 h, application rate 200 ppm, L1 larvae, 3 days after infestation, read-out: control (mortality, anti-feeding effect, growth inhibition)
Summary of the method: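 Cotton leaf discs on agar sprayed with aqueous test solutions made from 10'000 ppm DMSO stock; after drying, infested with five L1 larvae. Mortality, anti-feeding and growth inhibition scored versus untreated samples 3 days after infestation; control counted when any category exceeds untreated.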

[7] = test system: Myzus persicae; assay: Myzus persicae (green peach aphid): feeding/contact activity; conditions: 144 h, application rate 200 ppm, aphid population of mixed ages, 6 days after infestation, read-out: mortality
Experimental: Sunflower leaf discs were placed onto agar in a 24-well microtiter plate and sprayed with aqueous test solutions prepared from 10'000 ppm DMSO stock solutions. After drying, the leaf discs were infested with an aphid population of mixed ages. The samples were assessed for mortality 6 days after infestation.

[8] = test system: Thrips tabaci; assay: Thrips tabaci (onion thrips): feeding/contact activity; conditions: 144 h, application rate 200 ppm, Thrips population of mixed ages, 6 days after infestation, read-out: mortality
Experimental: Sunflower leaf discs were placed on agar in 24-well microtiter plates and sprayed with aqueous test solutions prepared from 10'000 ppm DMSO stock solutions. After drying the leaf discs were infested with a Thrips population of mixed ages. The samples were assessed for mortality 6 days after infestation.

Cc1cc(C2=NO[C@@](c3cc(Cl)c(F)c(Cl)c3)(C(F)(F)F)C2)ccc1C(=O)NC1CON(S(=O)(=O)C2CC2)C1 (stereo partly shown) [Compound A6]
≥ 80%: percent control (mortality, anti-feedant effect or growth inhibition) at 12.5 ppm [1] | percent effect (mortality or growth inhibition) at 200 ppm [2] | percent effect (mortality or growth inhibition) at 200 ppm [3] | percent effect (mortality or growth inhibition) at 200 ppm [4] | mortality at 200 ppm [5] | mortality at 200 ppm [6] | mortality at 200 ppm [7] | mortality at 200 ppm [8]

CCNS(=O)(=O)N1C[C@@H](NC(=O)c2ccc(C3=NO[C@@](c4cc(Cl)cc(Cl)c4)(C(F)(F)F)C3)cc2C)CO1 [Compound A135, 4-[(5S)-5-(3,5-dichlorophenyl)-5-(trifluoromethyl)-4H-isoxazol-3-yl]-N-[(4R)-2-(ethylsulfamoyl)isoxazolidin-4-yl]-2-methyl-benzamide]
≥ 80%: percent control (mortality, anti-feedant effect or growth inhibition) at 12.5 ppm [1] | percent effect (mortality or growth inhibition) at 200 ppm [2] | percent effect (mortality or growth inhibition) at 200 ppm [3] | percent effect (mortality or growth inhibition) at 200 ppm [4] | mortality at 200 ppm [5] | mortality at 200 ppm [6] | mortality at 200 ppm [7] | mortality at 200 ppm [8]

Cc1cc(C2=NOC(c3cc(Cl)c(Cl)c(Cl)c3)(C(F)(F)F)C2)ccc1C(=O)NC1CON(S(C)(=O)=O)C1 (stereo not shown) [Compound A61]
≥ 80%: percent control (mortality, anti-feedant effect or growth inhibition) at 12.5 ppm [1] | percent effect (mortality or growth inhibition) at 200 ppm [2] | percent effect (mortality or growth inhibition) at 200 ppm [3] | percent effect (mortality or growth inhibition) at 200 ppm [4] | mortality at 200 ppm [5] | mortality at 200 ppm [6] | mortality at 200 ppm [7] | mortality at 200 ppm [8]

CCNS(=O)(=O)N1C[C@@H](NC(=O)c2ccc(C3=NO[C@@](c4cc(Cl)c(Cl)c(Cl)c4)(C(F)(F)F)C3)cc2Cl)CO1 [Compound A125, 2-chloro-N-[(4R)-2-(ethylsulfamoyl)isoxazolidin-4-yl]-4-[(5S)-5-(3,4,5-trichlorophenyl)-5-(trifluoromethyl)-4H-isoxazol-3-yl]benzamide]
≥ 80%: percent control (mortality, anti-feedant effect or growth inhibition) at 12.5 ppm [1] | percent effect (mortality or growth inhibition) at 200 ppm [2] | percent effect (mortality or growth inhibition) at 200 ppm [3] | percent effect (mortality or growth inhibition) at 200 ppm [4] | mortality at 200 ppm [5] | mortality at 200 ppm [6] | mortality at 200 ppm [7] | mortality at 200 ppm [8]

CS(=O)(=O)N1C[C@@H](NC(=O)c2ccc(C3=NO[C@@](c4cc(Cl)c(Cl)c(Cl)c4)(C(F)(F)F)C3)cc2Cl)CO1 [Compound A145]
≥ 80%: percent control (mortality, anti-feedant effect or growth inhibition) at 12.5 ppm [1] | percent effect (mortality or growth inhibition) at 200 ppm [2] | percent effect (mortality or growth inhibition) at 200 ppm [3] | percent effect (mortality or growth inhibition) at 200 ppm [4] | mortality at 200 ppm [5] | mortality at 200 ppm [6] | mortality at 200 ppm [7] | mortality at 200 ppm [8]
